From ChEMBL document CHEMBL1770145, “Synthesis of 5(6)-dihydro-OSW-1 analogs bearing three kinds of disaccharides linking at 15-hydroxy and their antitumor activities” (Bioorg Med Chem Lett, 2011)

Key:
Type in all cases: functional, cell-based
[1] = tested on: Bel-7402; test: Cytotoxicity against human Bel7402 cells by MTT assay
[2] = tested on: A2780; test: Cytotoxicity against human A2780 cells by MTT assay
[3] = tested on: BGC-823; test: Cytotoxicity against human BGC823 cells by MTT assay
[4] = tested on: HCT-8; test: Cytotoxicity against human HCT8 cells by MTT assay
[5] = tested on: MCF7; test: Cytotoxicity against human MCF7 cells by MTT assay
[6] = tested on: KETR3; test: Cytotoxicity against human Ketr3 cells by MTT assay
[7] = tested on: A549; test: Cytotoxicity against human A549 cells by MTT assay
[8] = tested on: Bel-7402; test: Cytotoxicity against human Bel7402 cells
[9] = tested on: AGS; test: Cytotoxicity against human AGS cells
[10] = tested on: MCF7; test: Cytotoxicity against human MCF7 cells

COc1ccc(C(=O)O[C@H]2[C@H](O[C@@H]3[C@@H](OC(C)=O)[C@H](O[C@@H]4CC([C@H](C)C(=O)CC[C@@H](C)CO)[C@@]5(C)CC[C@H]6[C@@H](CC[C@H]7C[C@@H](O)CC[C@@]76C)[C@H]45)OC[C@@H]3O)OC[C@@H](O)[C@@H]2O)cc1 (stereo partly specified)
IC50 [1]: 0.522 µM
IC50 [2]: 0.545 µM
IC50 [3]: 0.283 µM
IC50 [4]: 0.1 µM
IC50 [5]: 0.499 µM
IC50 [6]: 0.1 µM
IC50 [7]: 0.843 µM

C[C@@H]1CC[C@@]2(OC1)O[C@H]1C[C@H]3[C@@H]4CC=C5C[C@@H](O[C@@H]6O[C@H](CO)[C@@H](O[C@@H]7O[C@@H](C)[C@H](O)[C@@H](O)[C@H]7O)[C@H](O)[C@H]6O[C@@H]6O[C@@H](C)[C@H](O)[C@@H](O)[C@H]6O)CC[C@]5(C)[C@H]4CC[C@]3(C)[C@H]1[C@@H]2C [DIOSCIN]
IC50 [1]: 0.93 µM
IC50 [2]: 0.581 µM
IC50 [3]: 0.268 µM
IC50 [4]: 0.351 µM
IC50 [5]: 0.879 µM
IC50 [6]: 0.447 µM
IC50 [7]: 0.454 µM

COc1ccc(C(=O)O[C@H]2[C@H](O[C@H]3CO[C@@H](O[C@@H]4CC([C@H](C)C(=O)CC[C@@H](C)CO)[C@@]5(C)CC[C@H]6[C@@H](CC[C@H]7C[C@@H](O)CC[C@@]76C)[C@H]45)[C@H](OC(C)=O)[C@H]3O)OC[C@@H](O)[C@@H]2O)cc1 (stereo partly specified)
IC50 [1]: > 10 µM
IC50 [2]: > 10 µM
IC50 [3]: > 10 µM
IC50 [4]: > 10 µM
IC50 [5]: > 10 µM
IC50 [6]: > 10 µM
IC50 [7]: > 10 µM

C[C@@H](CO)CCC(=O)[C@@H](C)C1C[C@H](O[C@H]2O[C@H](CO)[C@@H](O)[C@H](O)[C@H]2O[C@@H]2O[C@@H](C)[C@H](O)[C@@H](O)[C@H]2O)[C@H]2[C@@H]3CC[C@H]4C[C@@H](O)CC[C@]4(C)[C@H]3CC[C@]12C (stereo partly specified)
IC50 [1]: > 10 µM
IC50 [2]: > 10 µM
IC50 [3]: > 10 µM
IC50 [4]: > 10 µM
IC50 [5]: > 10 µM
IC50 [6]: > 10 µM
IC50 [7]: > 10 µM

C[C@@H](CO)CCC(=O)[C@@H](C)C1C[C@@H](O[C@H]2O[C@H](CO)[C@@H](O)[C@H](O)[C@H]2O[C@@H]2O[C@@H](C)[C@H](O)[C@@H](O)[C@H]2O)[C@H]2[C@@H]3CC[C@H]4C[C@@H](O)CC[C@]4(C)[C@H]3CC[C@]12C (stereo partly specified)
IC50 [1]: > 10 µM
IC50 [2]: > 10 µM
IC50 [3]: > 10 µM
IC50 [4]: > 10 µM
IC50 [5]: > 10 µM
IC50 [6]: > 10 µM
IC50 [7]: > 10 µM

COc1ccc(C(=O)O[C@H]2[C@H](O[C@@H]3[C@@H](OC(C)=O)[C@H](O[C@H]4C[C@H]5[C@@H]6CCC7C[C@@H](O)CC[C@]7(C)[C@H]6CC[C@]5(C)[C@@]4(O)[C@H](C)C(=O)CCC(C)C)OC[C@@H]3O)OC[C@@H](O)[C@@H]2O)cc1 (stereo partly specified)
IC50 [8]: 0.025 µM
IC50 [9]: 0.71 µM
IC50 [10]: 0.029 µM

COc1ccc(C(=O)O[C@H]2[C@H](O[C@@H]3[C@@H](OC(C)=O)[C@H](O[C@H]4CC([C@H](C)C(=O)CC[C@@H](C)CO)[C@@]5(C)CC[C@H]6[C@@H](CC[C@H]7C[C@@H](O)CC[C@@]76C)[C@H]45)OC[C@@H]3O)OC[C@@H](O)[C@@H]2O)cc1 (stereo partly specified)
IC50 [1]: > 10 µM
IC50 [2]: > 10 µM
IC50 [3]: > 10 µM
IC50 [4]: > 10 µM
IC50 [5]: > 10 µM
IC50 [6]: > 10 µM
IC50 [7]: > 10 µM

C[C@@H](CO)CCC(=O)[C@@H](C)C1C[C@@H](O[C@@H]2O[C@H](CO)[C@@H](O)[C@H](O)[C@H]2O[C@@H]2O[C@@H](C)[C@H](O)[C@@H](O)[C@H]2O)[C@H]2[C@@H]3CC[C@H]4C[C@@H](O)CC[C@]4(C)[C@H]3CC[C@]12C (stereo partly specified)
IC50 [1]: > 10 µM
IC50 [2]: > 10 µM
IC50 [3]: > 10 µM
IC50 [4]: > 10 µM
IC50 [5]: > 10 µM
IC50 [6]: > 10 µM
IC50 [7]: > 10 µM

C[C@@H](CO)CCC(=O)[C@@H](C)C1C[C@H](O[C@@H]2O[C@H](CO)[C@@H](O)[C@H](O)[C@H]2O[C@@H]2O[C@@H](C)[C@H](O)[C@@H](O)[C@H]2O)[C@H]2[C@@H]3CC[C@H]4C[C@@H](O)CC[C@]4(C)[C@H]3CC[C@]12C (stereo partly specified)
IC50 [1]: > 10 µM
IC50 [2]: > 10 µM
IC50 [3]: > 10 µM
IC50 [4]: > 10 µM
IC50 [5]: > 10 µM
IC50 [6]: > 10 µM
IC50 [7]: > 10 µM

COc1ccc(C(=O)O[C@H]2[C@H](O[C@H]3CO[C@@H](O[C@H]4CC([C@H](C)C(=O)CC[C@@H](C)CO)[C@@]5(C)CC[C@H]6[C@@H](CC[C@H]7C[C@@H](O)CC[C@@]76C)[C@H]45)[C@H](OC(C)=O)[C@H]3O)OC[C@@H](O)[C@@H]2O)cc1 (stereo partly specified)
IC50 [1]: > 10 µM
IC50 [2]: > 10 µM
IC50 [3]: > 10 µM
IC50 [4]: > 10 µM
IC50 [5]: > 10 µM
IC50 [6]: > 10 µM
IC50 [7]: > 10 µM
